What all share (assay type): functional
The subject of experiment [1] is Mus musculus. Description: Tested for the antimicrobial activity against Staphylococcus aureus (M202) in mice, subcutaneously. Conditions: sc.
For experiment [2], the species on record is Mus musculus. The experiment is described as follows: Tested for the antimicrobial activity against Streptococcus pneumoniae (D137) in mice, perorally. Conditions: po.
For experiment [3], the system named is Mus musculus. The experiment is described as follows: Tested for the antimicrobial activity against Staphylococcus aureus (M240) in mice, subcutaneously. Conditions: sc.
For experiment [4], the system named is Staphylococcus aureus. Description: Tested for inhibition of visible growth of Staphylococcus aureus.
The species entered for experiment [5] is Mus musculus. The experiment is described as follows: Tested for the antimicrobial activity against Streptococcus pyogenes (ST139) in mice, perorally. The settings on record: po.
The subject of experiment [6] is Mus musculus. Description: Tested for the antimicrobial activity against Streptococcus pneumoniae (D815) in mice, subcutaneously. The settings on record: sc.
Experiment [7] is filed under the species Mus musculus. Description: Tested for the antimicrobial activity against Streptococcus pneumoniae (D815) in mice, perorally. Conditions: po.
For the next experiment, the system named is Pseudomonas aeruginosa. The experiment is described as follows: Tested for inhibition of visible growth of Pseudomonas aeruginosa.
A further experiment concerns Enterococcus faecalis. The experiment is described as follows: Tested for inhibition of visible growth of Streptococcus faecalis.
Experiment [8] is filed under the species Mus musculus. Description: Tested for the antimicrobial activity against Staphylococcus aureus (M240) in mice, perorally. Conditions: po.
A further experiment relates to Klebsiella pneumoniae. The experiment is described as follows: Tested for inhibition of visible growth of Klebsiella pneumoniae.
In experiment [9] the test system is Staphylococcus aureus. The experiment is described as follows: Tested for inhibition of visible growth of Staphylococcus aureus, benzyl-penicillin sensitive.
The subject of a further experiment is Enterobacter cloacae. Description: Tested for inhibition of visible growth of Enterobacter cloacae.
A further experiment has as its system Streptococcus pyogenes. Description: Tested for inhibition of visible growth of Streptococcus pyogenes.
Experiment [10] is described as follows: Tested for inhibition of visible growth of Salmonella schottmuelleri.
The test system of another experiment is Escherichia coli. The experiment is described as follows: Tested for inhibition of visible growth of Escherichia coli.
A further experiment concerns Klebsiella aerogenes. Description: Tested for inhibition of visible growth of Enterobacter aerogenes.
Experiment [11] concerns Mus musculus. The experiment is described as follows: Tested for the antimicrobial activity against Streptococcus pneumoniae (D137) in mice, subcutaneously. Conditions: sc.
Experiment [12] is filed under the species Mus musculus. The experiment is described as follows: Tested for the antimicrobial activity against Streptococcus pyogenes (St141) in mice, perorally. Conditions: po.
For experiment [13], the species on record is Mus musculus. The experiment is described as follows: Tested for the antimicrobial activity against Staphylococcus aureus (M202) in mice, perorally. Conditions: po.
Experiment [14] has as its system Mus musculus. Description: Tested for the antimicrobial activity against Streptococcus pyogenes (ST139) in mice, subcutaneously. The settings on record: sc.
Another experiment concerns Streptococcus pneumoniae. Description: Tested for inhibition of visible growth of Streptococcus pneumoniae.
The test system of the next experiment is Proteus mirabilis. Description: Tested for inhibition of visible growth of Proteus mirabilis.
Experiment [15] concerns Mus musculus. Description: Tested for the antimicrobial activity against Streptococcus pyogenes (St141) in mice, subcutaneously. Conditions: sc.

The structures appear in SMILES notation. In brackets after ≈: the same amount, converted by molar mass. Where only a bound is given, the exact number is not on record here.

As for `CC1(C)SC2C(NC(=O)[C@H](N)c3ccc4c(c3)CCO4)C(=O)N2C1C(=O)O` (stereo not given in full), the ED50 in the experiment on Mus musculus [1] is 0.89 mg/kg; in the experiment listed under Mus musculus [2], 0.22 mg/kg; in the experiment on Mus musculus [3], 0.063 mg/kg; in the experiment listed under Mus musculus [5], 0.084 mg/kg; with Mus musculus [6], 0.078 mg/kg; in the experiment listed under Mus musculus [7], 0.16 mg/kg. The ED50 in the experiment listed under Mus musculus [8] is 0.4 mg/kg; in the experiment on Mus musculus [11], 0.14 mg/kg; in the experiment filed under Mus musculus [12], 0.11 mg/kg; in the experiment filed under Mus musculus [13] it was 0.41 mg/kg; in the experiment with Mus musculus [14] it was 0.053 mg/kg; in the experiment on Mus musculus [15] it was 0.07 mg/kg. The MIC in the experiment on Staphylococcus aureus [4] is 100 µg/mL (≈ 255 µM); against Pseudomonas aeruginosa it was over 100 µg/mL; in the experiment on Enterococcus faecalis, 3.1 µg/mL (≈ 7.92 µM); in the experiment with Klebsiella pneumoniae, 6.2 µg/mL (≈ 15.8 µM); in the experiment on Staphylococcus aureus [9] it was 0.05 µg/mL (≈ 0.128 µM); against Enterobacter cloacae, over 100 µg/mL. Also, the MIC is at most 0.03 µg/mL in the experiment on Streptococcus pyogenes; 1.6 µg/mL (≈ 4.09 µM) in experiment [10]; 25 µg/mL (≈ 63.9 µM) against Escherichia coli; over 100 µg/mL in the experiment on Klebsiella aerogenes; at most 0.03 µg/mL in the experiment with Streptococcus pneumoniae; 12.5 µg/mL (≈ 31.9 µM) with Proteus mirabilis.
Turning to `CC1=C(C(=O)O)N2C(=O)C(NC(=O)C(N)c3cccc4c3OCO4)C2SC1` (stereo not given), the MIC with Staphylococcus aureus [4] is 6.2 µg/mL (≈ 15.8 µM); against Enterococcus faecalis it was over 200 µg/mL; against Klebsiella pneumoniae it was over 200 µg/mL; in the experiment with Staphylococcus aureus [9], 3.1 µg/mL (≈ 7.92 µM); in the experiment on Enterobacter cloacae, over 200 µg/mL; against Streptococcus pyogenes, 0.4 µg/mL (≈ 1.02 µM). Besides, the MIC in experiment [10] was 100 µg/mL (≈ 255 µM); against Escherichia coli, over 200 µg/mL; against Klebsiella aerogenes it was over 200 µg/mL; with Streptococcus pneumoniae it was 6.2 µg/mL (≈ 15.8 µM); against Proteus mirabilis it was over 200 µg/mL.
As for `CC(=O)OCC1=C(C(=O)O)N2C(=O)[C@@H](NC(=O)Cc3cccs3)[C@H]2SC1` [CEPHALOTHIN], the MIC against Staphylococcus aureus [4] was 0.8 µg/mL (≈ 2.02 µM); against Enterococcus faecalis, 100 µg/mL (≈ 252 µM); with Klebsiella pneumoniae, 3.1 µg/mL (≈ 7.82 µM); with Staphylococcus aureus [9], 0.2 µg/mL (≈ 0.504 µM); in the experiment with Enterobacter cloacae, over 100 µg/mL; in the experiment on Streptococcus pyogenes it was 0.1 µg/mL (≈ 0.252 µM). In addition, the MIC in [10] came to 3.1 µg/mL (≈ 7.82 µM); against Escherichia coli, 12.5 µg/mL (≈ 31.5 µM); against Klebsiella aerogenes it was 100 µg/mL (≈ 252 µM); with Streptococcus pneumoniae it was 0.1 µg/mL (≈ 0.252 µM); with Proteus mirabilis, 12.5 µg/mL (≈ 31.5 µM).
Take `N[C@H](C(=O)NC1C(=O)N2C(C(=O)O)=C(CSc3c[nH]nn3)CSC12)c1ccc2c(c1)OCO2` (stereo not given in full): the MIC was over 100 µg/mL with Enterococcus faecalis; over 50 µg/mL with Klebsiella pneumoniae; 6.2 µg/mL (≈ 12.6 µM) in the experiment on Staphylococcus aureus [9]; 1.6 µg/mL (≈ 3.26 µM) in the experiment on Streptococcus pyogenes; 50 µg/mL (≈ 102 µM) in experiment [10]; over 50 µg/mL against Escherichia coli. In addition, in the experiment on Proteus mirabilis, the MIC was over 50 µg/mL.
As to `CC1(C)S[C@@H]2[C@H](NC(=O)C(C(=O)O)c3ccccc3)C(=O)N2[C@H]1C(=O)O` (stereo not given in full) [CARBENICILLIN], the MIC with Staphylococcus aureus [4] was 25 µg/mL (≈ 66.1 µM); against Pseudomonas aeruginosa, 0.8 µg/mL (≈ 2.11 µM); in the experiment with Enterococcus faecalis it was over 100 µg/mL; in the experiment with Klebsiella pneumoniae, 6.2 µg/mL (≈ 16.4 µM); in the experiment on Staphylococcus aureus [9], 0.4 µg/mL (≈ 1.06 µM); with Enterobacter cloacae, 6.2 µg/mL (≈ 16.4 µM). Also, the MIC against Streptococcus pyogenes was 0.1 µg/mL (≈ 0.264 µM); in [10], 6.2 µg/mL (≈ 16.4 µM); with Escherichia coli it was 6.2 µg/mL (≈ 16.4 µM); against Klebsiella aerogenes it was 6.2 µg/mL (≈ 16.4 µM); against Streptococcus pneumoniae, 0.4 µg/mL (≈ 1.06 µM); in the experiment with Proteus mirabilis, 0.8 µg/mL (≈ 2.11 µM).
Take `CC1=C(C(=O)O)N2C(=O)C(NC(=O)C(N)c3ccc4c(c3)OCCO4)C2SC1` (mixture of isomers): the MIC is 6.2 µg/mL in the experiment with Staphylococcus aureus [4]; over 200 µg/mL against Enterococcus faecalis; 200 µg/mL in the experiment on Klebsiella pneumoniae; 0.8 µg/mL against Staphylococcus aureus [9]; over 200 µg/mL with Enterobacter cloacae; 0.8 µg/mL against Streptococcus pyogenes. The MIC was 100 µg/mL in experiment [10]; 200 µg/mL against Escherichia coli; over 200 µg/mL in the experiment on Klebsiella aerogenes; 1.6 µg/mL with Streptococcus pneumoniae; over 200 µg/mL in the experiment with Proteus mirabilis.
Regarding `CC(=O)OCC1=C(C(=O)O)N2C(=O)C(NC(=O)C(N)c3ccc4c(c3)OCO4)C2SC1` (racemic), the minimal inhibitory concentration (MIC) against Staphylococcus aureus [4] was 6.2 µg/mL (≈ 13.8 µM); against Enterococcus faecalis, 200 µg/mL (≈ 445 µM); against Klebsiella pneumoniae, 25 µg/mL (≈ 55.6 µM); against Staphylococcus aureus [9], 3.1 µg/mL (≈ 6.9 µM); against Enterobacter cloacae it was over 200 µg/mL; with Streptococcus pyogenes it was 0.2 µg/mL (≈ 0.445 µM). Besides, the minimum inhibitory concentration (MIC) is 12.5 µg/mL (≈ 27.8 µM) in experiment [10]; 50 µg/mL (≈ 111 µM) against Escherichia coli; over 200 µg/mL with Klebsiella aerogenes; 0.4 µg/mL (≈ 0.89 µM) in the experiment on Streptococcus pneumoniae; 100 µg/mL (≈ 222 µM) against Proteus mirabilis.
As to `Cc1nnc(SCC2=C(C(=O)O)N3C(=O)C(NC(=O)[C@@H](N)c4ccc5c(c4)OCO5)C3SC2)s1` (stereo not given in full), the MIC was over 100 µg/mL against Enterococcus faecalis; over 100 µg/mL in the experiment on Klebsiella pneumoniae; 6.2 µg/mL (≈ 11.9 µM) against Staphylococcus aureus [9]; 0.8 µg/mL (≈ 1.53 µM) in the experiment on Streptococcus pyogenes; 50 µg/mL (≈ 95.9 µM) in experiment [10]; over 100 µg/mL against Escherichia coli. Besides, the MIC against Streptococcus pneumoniae is 0.8 µg/mL (≈ 1.53 µM); in the experiment on Proteus mirabilis, over 100 µg/mL.

The values are drawn from ChEMBL document CHEMBL1121424, “Orally active cephalosporins and penicillins” (J Med Chem, 1980).
